Assay type in all cases: cell-based
Test [1] has as its system A. oris, A. naeslundii, S. mitis and S. oralis. Kind of test: Bacteria adhesion assay, defined inocula (MBEC pegs, saliva pellicle, CFU plating). Conditions: for inhibition at 0.01 % / inhibition at 10000 µM / inhibition at 0.1 %: relative CFU with base designated as 100, read-out: Adhesion Δ (difference in relative biofilm abundance between control base and treatment); for Adhesion Δ (difference in relative biofilm abundance between control base and treatment): relative CFU with base designated as 100. On the procedure: (§1) A total of 12 bacterial strains were selected based on scientific literature. The strains were grown in media recommended by strain suppliers. Broth cultures were adjusted to log 7 CFU/mL with growth media containing 20% of glycerol. For C. matruchotii growth medium with glycerol was used to wash off the colonies culture plates, the cell suspension was then homogenized by vortexing with glass beads. The aerobic and anaerobic strains were mixed and aliquoted separately. The inocula were stored at −80° C. until use.
(§2) Saliva and oral inocula preparation. Saliva and oral microflora samples were collected from healthy volunteers by passive drooling using a method described previously. • (a) Bacteria Adhesion assay. Pegs of 96-well MBEC plate (Innovotech, Canada) were submerged in saliva for pellicle formation. Overnight culture of A. oris, A. naeslundii, S. mitis and S. oralis were normalized to OD=0.1 using 0.85% NaCl and mixed in equal proportions. The plates were treated with samples for 2 min and incubated with the culture mixture for 30 min at 37° C. and 5% CO2. The pegs on 96-well plates were then washed 3 times before harvest. • (b) Biofilm formation assay. Saliva-coated 96-well MBEC plates were incubated with inocula anaerobically overnight. The next day, the inoculum was replaced with modified BHI broth (BHI supplemented with 1 g/L mucin, 0.5 mg/L Vitamin K and 10 mg/L hemin). The devices were treated for 2 min twice to mimic the application of dental care products, after which the treatment solution was replaced with fresh modified BHI broth and incubation of the devices was continued. The biofilms were harvested after two days. • (c) Biofilm disruption assay. The inoculation and incubation was done in the same manner as described in the formation assay except that the incubation time was extended to 7 days, after which the mature biofilm was subjected to treatment twice a day as in the formation assay for 3 days before harvest.
(§3) Biofilm harvest. To harvest the attached cells, the peg of the MBEC device was immersed in 200 μL of saline solution per well. The plates were sonicated in an ultrasonic bath to obtain cell suspension. For the adhesion assay, the suspension was serially diluted and plated on Tryptic Soy Agar using Microlab STAR (Hamilton). For the formation and disruption assays, the suspension was used for SYTO 9 staining using LIVE/DEAD® BacLight Bacterial Viability Kits L7012 (Thermo Fisher Scientific) following manufacturer instructions.
(§4) The inventors used the assays described above to screen more ingredients for activity in a model mouth wash (Table 5).
(§5) The compounds and compositions for testing activities in Table 6 were dissolved in DMSO. The rest of the ingredients of mouth rinse in Table 5 were mixed to make a master mix in water and then aliquoted. The DMSO solution was then added to the master mix and homogenized.

The subject of test [2] is biofilm of defined inocula (12 bacterial strains of Table 1). Kind of test: Biofilm formation assay, defined inocula (MBEC plates, SYTO 9 fluorescence). Conditions: for inhibition at 0.01 % / inhibition at 10000 µM / inhibition at 0.1 %: read-out: Formation Δ (difference in relative biofilm abundance between control base and treatment); for inhibition at 0.1 %: dosage 0.1%. On the procedure:
as §1, §2, §3, §4, §5

The subject of test [3] is mature biofilm of defined inocula (12 bacterial strains of Table 1). Description: Biofilm disruption assay, defined inocula (7-day mature biofilm, SYTO 9 fluorescence). Conditions: for inhibition at 0.01 % / inhibition at 10000 µM / inhibition at 0.1 %: read-out: Disruption Δ (difference in relative biofilm abundance between control base and treatment); for inhibition at 0.1 %: dosage 0.1%. On the procedure:
as §1, §2, §3, §4, §5

Setting [4] is: dosage 0.01%, defined inocula, relative fluorescence intensity with base designated as 100.
[5] abbreviates: dosage 10 mM in model mouth rinse with DMSO.
Where [6] appears, read: dosage 10 mM in model mouth rinse with DMSO, defined inocula, relative fluorescence intensity with base designated as 100.
Where [7] appears, read: defined inocula, relative fluorescence intensity with base designated as 100.

From patent publication US20240285512A1, “ORAL CARE COMPOSITIONS” (Firmenich SA, priority 2021, published 2024) come the findings set out here.

Read-outs that look alike come from different tables or passages of the source.

In the case of `CCC=CCCOC(C)=O` [3-HEXENYL ACETATE, 3-hexenyl acetate], the inhibition at 0.01 % in test [1] (dosage 0.01%) is 32.7%; in test [2] (setting [4]), 78.1%; in test [3] (setting [4]), 64.7%.
For `CC=Cc1ccc(OC)cc1` [Anethole], the inhibition at 10000 µM in test [1] (setting [5]) was 17.4%; in test [2] (setting [6]), 53.4%; in test [3] (setting [6]), 77.4%.
As to `CC(=O)/C=C/C1=C(C)CCCC1(C)C` [BETA IONONE, (3E)-4-(2,6,6-Trimethylcyclohex-1-en-1-yl)but-3-en-2-one], the inhibition at 0.01 % came out at 19.4% in test [1] (dosage 0.01%), 80.8% in test [2] (setting [4]) and 61.8% in test [3] (setting [4]).
As to `O=CC=Cc1ccccc1` [Cinnamaldehyde], the inhibition at 0.1 % in test [1] (dosage 0.1%) was -9.1%; in test [2] (setting [7]), 83.3%; in test [3] (setting [7]), 48.2%.
`CC(C)=CCCC(C)CCO` (centres unmarked) [Citronellol]: the inhibition at 10000 µM worked out at 91.7% in test [1] (setting [5]), 58.1% in test [2] (setting [6]) and 67% in test [3] (setting [6]).
On to `CCCCCCCCCC(=O)O` [Decanoic acid], for which the inhibition at 10000 µM in test [2] (setting [6]) came to 93.3%; in test [3] (setting [6]), 89.8%.
Take `CC(C)=CCC/C(C)=C/CO` [GERANIOL, Geraniol]: the values for the inhibition at 0.01 % in test [1] (dosage 0.01%), in test [2] (setting [4]) and in test [3] (setting [4]) were 32.1%, 84.7% and 61.7%, respectively.
Consider `CC(C)CCO` [ISOAMYL ALCOHOL, Isoamyl alcohol], for which the inhibition at 0.1 % was 63.7% in test [1] (dosage 0.1%), 82.3% in test [2] (setting [7]) and 57.4% in test [3] (setting [7]).
With `CCCCCC1C(=O)CCC1CC(=O)OC` (centres unmarked) [Methyl (2-pentyl-3-oxocyclopentyl) acetate], the “Adhesion Δ (difference in relative biofilm abundance between control base and treatment)” value in test [1] (dosage 0.01%) is 37.1. Besides, in test [2] (setting [4]), the “Formation Δ (difference in relative biofilm abundance between control base and treatment)” value came out at 86.3. Also, in test [3] (setting [4]), the “Disruption Δ (difference in relative biofilm abundance between control base and treatment)” value is listed as 63.2.
As for `CCCCCCCCCCCCCC(=O)O` [Myristic Acid, Myristic acid], the values for the inhibition at 10000 µM in test [1] (setting [5]), in test [2] (setting [6]) and in test [3] (setting [6]) were 33.3%, 64.9% and 87.9%, respectively.
Taken in the same sequence, the figures for `C=C(C)[C@@H]1CCC2=CC(=O)C[C@@H](C)[C@]2(C)C1` [Nootkatone] were 86.4%, 20.3% and 63.1%.
For `CCCCC1CCC(=O)O1` (centres unmarked) [OCTALACTONE, Gamma octalactone], the “Adhesion Δ (difference in relative biofilm abundance between control base and treatment)” value in test [1] (dosage 0.01%) came out at 63.5. In addition, the “Formation Δ (difference in relative biofilm abundance between control base and treatment)” value in test [2] (setting [4]) worked out at 89.1. Besides, the “Disruption Δ (difference in relative biofilm abundance between control base and treatment)” value in test [3] (setting [4]) was found to be 74.1.
`Cc1ccc(C(C)C)c(O)c1` [THYMOL, Thymol]: the inhibition at 0.1 % stood at 5.7% in test [1] (dosage 0.1%), 86.7% in test [2] (setting [7]) and 72% in test [3] (setting [7]).
`CC/C=C\CCOC(=O)CCCCC` [cis-3-hexenylhexanoate]: the “Adhesion Δ (difference in relative biofilm abundance between control base and treatment)” value in test [1] (setting [5]) is on record as 9.1. Further, the “Formation Δ (difference in relative biofilm abundance between control base and treatment)” value in test [2] (setting [6]) stood at 58.1. In test [3] (setting [6]), the “Disruption Δ (difference in relative biofilm abundance between control base and treatment)” value is given as 75.3.
On to `CCCCCCCCCCC(=O)O` [undecanoic acid, Undecanoic acid], for which the inhibition at 10000 µM in test [1] (setting [5]) was 98.8%; in test [2] (setting [6]), 87.5%; in test [3] (setting [6]) it was 89.1%.
Turning to Butanol, the “Adhesion Δ (difference in relative biofilm abundance between control base and treatment)” value in test [1] (dosage 0.1%) was 56.8. The “Formation Δ (difference in relative biofilm abundance between control base and treatment)” value in test [2] was 83.5. Also, in test [3], the “Disruption Δ (difference in relative biofilm abundance between control base and treatment)” value is 59.5.
